Measurements from PubChem BioAssay (NCI).
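Compound exposure: 48 hours, 5 concentrations, 96-well plates. Abbreviation: GI50, concentration required for 50% inhibition of growth. At the TGI there is no net growth.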

Tests used:
Assay in all cases: DTP human tumour cell line panel, 48 h
M14 melanoma = test system: M14 melanoma
HS 578T breast = test system: HS 578T breast
HCC-2998 colon = test system: HCC-2998 colon
NCI-H23 lung = test system: NCI-H23 lung
SK-MEL-5 melanoma = test system: SK-MEL-5 melanoma
A498 renal = test system: A498 renal
SF-268 CNS = test system: SF-268 CNS
CAKI-1 renal = test system: CAKI-1 renal
RPMI-8226 leukemia = test system: RPMI-8226 leukemia
ACHN renal = test system: ACHN renal
SNB-19 CNS = test system: SNB-19 CNS
SF-295 CNS = test system: SF-295 CNS
A549 NSCLC = test system: A549 NSCLC
NCI-H460 lung = test system: NCI-H460 lung
EKVX NSCLC = test system: EKVX NSCLC
T-47D breast = test system: T-47D breast
UACC-62 melanoma = test system: UACC-62 melanoma
SK-OV-3 ovarian = test system: SK-OV-3 ovarian
DU-145 prostate = test system: DU-145 prostate
BT-549 breast = test system: BT-549 breast
LOX IMVI melanoma = test system: LOX IMVI melanoma
MDA-MB-435 = test system: MDA-MB-435
CCRF-CEM leukemia = test system: CCRF-CEM leukemia
SR leukemia = test system: SR leukemia
U251 CNS = test system: U251 CNS
SK-MEL-2 melanoma = test system: SK-MEL-2 melanoma
HCT-15 colon = test system: HCT-15 colon
SK-MEL-28 melanoma = test system: SK-MEL-28 melanoma
HL-60(TB) leukemia = test system: HL-60(TB) leukemia
PC-3 prostate = test system: PC-3 prostate
OVCAR-4 ovarian = test system: OVCAR-4 ovarian
OVCAR-8 ovarian = test system: OVCAR-8 ovarian
TK-10 renal = test system: TK-10 renal
SW-620 colon = test system: SW-620 colon
UO-31 renal = test system: UO-31 renal
MALME-3M melanoma = test system: MALME-3M melanoma
MDA-N = test system: MDA-N
MCF7 breast = test system: MCF7 breast
SN12C renal = test system: SN12C renal
MOLT-4 leukemia = test system: MOLT-4 leukemia
RXF 393 renal = test system: RXF 393 renal
HOP-92 NSCLC = test system: HOP-92 NSCLC
COLO 205 colon = test system: COLO 205 colon
HOP-62 NSCLC = test system: HOP-62 NSCLC
786-0 renal = test system: 786-0 renal
HCT-116 colon = test system: HCT-116 colon
NCI/ADR-RES ovarian = test system: NCI/ADR-RES ovarian
NCI-H522 lung = test system: NCI-H522 lung
OVCAR-3 ovarian = test system: OVCAR-3 ovarian
KM12 colon = test system: KM12 colon
IGROV1 ovarian = test system: IGROV1 ovarian
MDA-MB-231 breast = test system: MDA-MB-231 breast
OVCAR-5 ovarian = test system: OVCAR-5 ovarian
UACC-257 melanoma = test system: UACC-257 melanoma
SNB-75 CNS = test system: SNB-75 CNS
K-562 leukemia = test system: K-562 leukemia
SF-539 CNS = test system: SF-539 CNS
HT29 colon = test system: HT29 colon
NCI-H226 lung = test system: NCI-H226 lung
DMS 114 small cell lung = test system: DMS 114 small cell lung

Compound: CCCCCNC(=O)c1cc2cc(CCl)ccc2oc1=O
- TGI (M14 melanoma): > 51.4 µM
- TGI (HS 578T breast): > 54.7 µM
- TGI (HCC-2998 colon): 18.9 µM
- TGI (NCI-H23 lung): 11.5 µM
- TGI (SK-MEL-5 melanoma): > 51.2 µM
- TGI (A498 renal): 3.98 µM
- TGI (SF-268 CNS): 12.4 µM
- TGI (CAKI-1 renal): 2.57 µM
- TGI (RPMI-8226 leukemia): > 100 µM
- TGI (ACHN renal): 4.52 µM
- TGI (SNB-19 CNS): > 69 µM
- TGI (SF-295 CNS): 24.7 µM
- TGI (A549 NSCLC): 14.1 µM
- TGI (NCI-H460 lung): 3.3 µM
- TGI (EKVX NSCLC): 9.94 µM
- TGI (T-47D breast): 2.98 µM
- TGI (UACC-62 melanoma): 7.15 µM
- TGI (SK-OV-3 ovarian): 10.3 µM
- TGI (DU-145 prostate): 5.95 µM
- TGI (BT-549 breast): > 46.3 µM
- TGI (LOX IMVI melanoma): > 72.8 µM
- TGI (MDA-MB-435): > 60.8 µM
- TGI (CCRF-CEM leukemia): > 100 µM
- TGI (SR leukemia): > 100 µM
- TGI (U251 CNS): 36.6 µM
- TGI (SK-MEL-2 melanoma): 19.8 µM
- TGI (HCT-15 colon): 6.22 µM
- TGI (SK-MEL-28 melanoma): > 100 µM
- TGI (HL-60(TB) leukemia): 10.5 µM
- TGI (PC-3 prostate): 2.81 µM
- TGI (OVCAR-4 ovarian): 26.6 µM
- TGI (OVCAR-8 ovarian): > 100 µM
- TGI (TK-10 renal): 2.85 µM
- TGI (SW-620 colon): > 100 µM
- TGI (UO-31 renal): 3.07 µM
- TGI (MALME-3M melanoma): 7.5 µM
- TGI (MDA-N): > 94.2 µM
- TGI (MCF7 breast): > 87.4 µM
- TGI (SN12C renal): 3.67 µM
- TGI (MOLT-4 leukemia): > 100 µM
- TGI (RXF 393 renal): 1.78 µM
- TGI (HOP-92 NSCLC): 3.71 µM
- TGI (COLO 205 colon): 2.79 µM
- TGI (HOP-62 NSCLC): 14 µM
- TGI (786-0 renal): 2.82 µM
- TGI (HCT-116 colon): > 38.5 µM
- TGI (NCI/ADR-RES ovarian): > 66.8 µM
- TGI (NCI-H522 lung): 17.1 µM
- TGI (OVCAR-3 ovarian): 26.6 µM
- TGI (KM12 colon): > 44.5 µM
- TGI (IGROV1 ovarian): 18.6 µM
- TGI (MDA-MB-231 breast): 3.72 µM
- TGI (OVCAR-5 ovarian): 7.99 µM
- TGI (UACC-257 melanoma): 6.56 µM
- TGI (SNB-75 CNS): 13.1 µM
- TGI (K-562 leukemia): > 100 µM
- TGI (SF-539 CNS): 16.8 µM
- TGI (HT29 colon): 9.58 µM
- TGI (NCI-H226 lung): 30.1 µM

Compound: O=C(Nn1cc(F)c(=O)[nH]c1=O)C12CC3CC(CC(C3)C1)C2
- TGI (M14 melanoma): > 72.6 µM
- TGI (HS 578T breast): > 81.2 µM
- TGI (HCC-2998 colon): 18.4 µM
- TGI (NCI-H23 lung): 53 µM
- TGI (SK-MEL-5 melanoma): 12.2 µM
- TGI (A498 renal): > 81.2 µM
- TGI (SF-268 CNS): 98.2 µM
- TGI (CAKI-1 renal): 32.7 µM
- TGI (RPMI-8226 leukemia): 42.5 µM
- TGI (ACHN renal): 63.8 µM
- TGI (SNB-19 CNS): > 100 µM
- TGI (SF-295 CNS): > 100 µM
- TGI (A549 NSCLC): > 100 µM
- TGI (NCI-H460 lung): 19.7 µM
- TGI (EKVX NSCLC): > 89.1 µM
- TGI (T-47D breast): > 80.2 µM
- TGI (UACC-62 melanoma): 24.4 µM
- TGI (SK-OV-3 ovarian): 77.5 µM
- TGI (DU-145 prostate): > 100 µM
- TGI (BT-549 breast): 79.3 µM
- TGI (LOX IMVI melanoma): 27.8 µM
- TGI (MDA-MB-435): > 56 µM
- TGI (CCRF-CEM leukemia): 45 µM
- TGI (SR leukemia): 26.8 µM
- TGI (U251 CNS): > 72 µM
- TGI (SK-MEL-2 melanoma): 63.3 µM
- TGI (HCT-15 colon): 25.6 µM
- TGI (SK-MEL-28 melanoma): > 86.6 µM
- TGI (HL-60(TB) leukemia): 54.3 µM
- TGI (PC-3 prostate): 45.5 µM
- TGI (OVCAR-4 ovarian): > 66.2 µM
- TGI (OVCAR-8 ovarian): > 100 µM
- TGI (TK-10 renal): > 86.8 µM
- TGI (SW-620 colon): > 96.4 µM
- TGI (UO-31 renal): 54.4 µM
- TGI (MALME-3M melanoma): 32.2 µM
- TGI (MDA-N): > 57 µM
- TGI (MCF7 breast): > 100 µM
- TGI (SN12C renal): > 100 µM
- TGI (MOLT-4 leukemia): 47.9 µM
- TGI (RXF 393 renal): 57.8 µM
- TGI (HOP-92 NSCLC): 42.6 µM
- TGI (COLO 205 colon): 23.5 µM
- TGI (HOP-62 NSCLC): 51.8 µM
- TGI (786-0 renal): > 100 µM
- TGI (HCT-116 colon): 24.9 µM
- TGI (NCI/ADR-RES ovarian): > 100 µM
- TGI (NCI-H522 lung): 44.5 µM
- TGI (OVCAR-3 ovarian): 35.1 µM
- TGI (KM12 colon): 49.1 µM
- TGI (IGROV1 ovarian): 27.5 µM
- TGI (MDA-MB-231 breast): 37 µM
- TGI (OVCAR-5 ovarian): > 95.1 µM
- TGI (UACC-257 melanoma): > 100 µM
- TGI (SNB-75 CNS): 80.1 µM
- TGI (K-562 leukemia): > 75.9 µM
- TGI (SF-539 CNS): 16.3 µM
- TGI (HT29 colon): 37.1 µM
- TGI (NCI-H226 lung): > 100 µM

Compound: CCSC(=O)N1c2ccc(OC)cc2C=CC1C#N (stereo unspecified)
- TGI (M14 melanoma): > 1000 µM
- TGI (SK-MEL-5 melanoma): 0.224 µM
- TGI (DMS 114 small cell lung): 1.02 µM
- TGI (CAKI-1 renal): 737 µM
- TGI (RPMI-8226 leukemia): 689 µM
- TGI (ACHN renal): > 1000 µM
- GI50 (SNB-19 CNS): 6.08 µM
- TGI (SNB-19 CNS): > 1000 µM
- TGI (A549 NSCLC): > 1000 µM
- TGI (EKVX NSCLC): > 1000 µM
- TGI (T-47D breast): 734 µM
- TGI (DU-145 prostate): 0.0105 µM
- GI50 (MDA-MB-435): 0.000369 µM
- TGI (MDA-MB-435): 0.00553 µM
- TGI (CCRF-CEM leukemia): > 1000 µM
- TGI (SK-MEL-2 melanoma): 7.43 µM
- GI50 (HCT-15 colon): 0.00168 µM
- TGI (SK-MEL-28 melanoma): > 1000 µM
- TGI (HL-60(TB) leukemia): 0.00522 µM
- GI50 (PC-3 prostate): 0.214 µM
- TGI (PC-3 prostate): > 1000 µM
- TGI (OVCAR-4 ovarian): > 1000 µM
- TGI (SW-620 colon): 199 µM
- TGI (UO-31 renal): > 1000 µM
- TGI (MALME-3M melanoma): > 1000 µM
- GI50 (MDA-N): 0.0003 µM
- TGI (MDA-N): 0.00138 µM
- GI50 (MCF7 breast): 0.000805 µM
- TGI (MCF7 breast): > 1000 µM
- TGI (MOLT-4 leukemia): > 1000 µM
- TGI (HOP-62 NSCLC): 0.0467 µM
- TGI (786-0 renal): 121 µM
- TGI (HCT-116 colon): 0.0382 µM
- GI50 (NCI/ADR-RES ovarian): 0.00254 µM
- TGI (OVCAR-3 ovarian): 0.0062 µM
- TGI (IGROV1 ovarian): > 1000 µM
- GI50 (MDA-MB-231 breast): 0.529 µM
- GI50 (OVCAR-5 ovarian): 0.596 µM
- TGI (OVCAR-5 ovarian): > 1000 µM
- GI50 (SNB-75 CNS): 0.231 µM
- TGI (SNB-75 CNS): > 1000 µM
- TGI (K-562 leukemia): > 1000 µM
- TGI (SF-539 CNS): 0.00582 µM
